How the values were obtained:
[1] = Liquid; for viscosity / electrical conductivity: 100 kPa; for viscosity: Cone and plate viscometry; for electrical conductivity: Direct current cell with electrodes; for mass density: 101.33 kPa, Vibrating tube method
[2] = xn = mol fraction of the nth substance listed; details: 100 kPa, Liquid, x2 = 0; for viscosity: Cone and plate viscometry; for mass density: Vibrating tube method

CCCn1cc[n+](C)c1.O=S(=O)([N-]S(=O)(=O)C(F)(F)F)C(F)(F)F
[1]
Details | electrical conductivity [S/m] | mass density [kg/m3] | viscosity [mPa·s]
293.15 K | 0.355 | 1479.32 | 54.19
298.15 K | 0.435 | 1474.24 | 43.94
303.15 K | 0.521 | 1469.4 | 35.92
308.15 K | 0.611 | 1464.43 | 30
313.15 K | 0.71 | 1459.44 | 25.32
318.15 K | 0.813 | 1454.63 | 21.58
323.15 K | 0.923 | 1449.73 | 18.82

O=C1CCCO1 [γ-butyrolactone] + CCCn1cc[n+](C)c1.O=S(=O)([N-]S(=O)(=O)C(F)(F)F)C(F)(F)F
[2]
Details | mass density [kg/m3] | viscosity [mPa·s]
293.15 K | 1129.2 | 1.92
298.15 K | 1124.26 | 1.73
303.15 K | 1119.33 | 1.63
308.15 K | 1114.31 | 1.52
313.15 K | 1109.23 | 1.42
318.15 K | 1104.1 | 1.35
323.15 K | 1098.88 | 1.3
